Reference: patent US20070049564A1 (Wyeth, priority 2005, published 2007)
Values after ≈ are worked out from the molar mass of the structure shown. Read-outs that look alike come from different tables or passages of the source.

Tests used:
E. coli GC 2231 = test: MIC, broth microdilution; details: Escherichia coli
E. coli GC 2235 = test: MIC, broth microdilution; details: Escherichia coli
Procedure: Antimicrobial susceptibility testing. The in vitro activities of the antibiotics are determined by the broth microdilution method as recommended by the National Committee for Clinical Laboratory Standards (NCCLS) (1). Mueller-Hinton II broth (MHBII)(BBL Cockeysville, Md.) is the medium employed in the testing procedures. Microtiter plates containing serial dilutions of each antimicrobial agent are inoculated with each organism to yield the appropriate density (10^5 CFU/ml) in a 100 μl final volume. The plates are incubated for 18-22 hours at 35° C. in ambient air.
Representative compounds were first incubated in mouse serum for an hour prior to the in vitro testing against a panel of selected gram-positive and gram-negative bacteria strains. All compounds were also pre-incubated in water for an hour prior to testing as control. Representative compounds of Formula I were incubated in human serum prior to MIC determination.

E. coli GC 2233 = test: MIC, broth microdilution; details: Escherichia coli
E. coli GC 2270 = test: MIC, broth microdilution; details: Escherichia coli
E. coli GC 4560 = test: MIC, broth microdilution; details: Escherichia coli
E. coli GC 6465 = test: MIC, broth microdilution; details: Escherichia coli
E. coli GC 1073 = test: MIC, broth microdilution; details: Escherichia coli
S. typhimurium GC 2172 = test: MIC, broth microdilution; details: Salmonella enterica, TYPHIMURIUM
S. aureus GC 6466 = test: MIC, broth microdilution; details: Staphylococcus aureus
S. aureus GC 6467 = test: MIC, broth microdilution; details: Staphylococcus aureus
S. aureus GC 1079 = test: MIC, broth microdilution; details: Staphylococcus aureus
S. aureus GC 4536 = test: MIC, broth microdilution; details: Staphylococcus aureus
S. aureus GC 2216 = test: MIC, broth microdilution; details: Staphylococcus aureus
S. aureus GC 6469 = test: MIC, broth microdilution; details: Staphylococcus aureus
E. faecalis GC 2242 = test: MIC, broth microdilution; details: Enterococcus faecalis
E. faecium GC 4556 = test: MIC, broth microdilution; details: Enterococcus faecium
E. faecium GC 2243 = test: MIC, broth microdilution; details: Enterococcus faecium
c. albicans GC 3066 = test: MIC, broth microdilution
E. coli = test: Range of MIC for E. coli strains; details: Escherichia coli
Staph. = test: Range of MIC for Staph. strains, including MRSA; details: Staphylococcus aureus

CN(C)c1cc(NC(=O)CN(C(=O)OCOC(=O)C2CCCC2)C(C)(C)C)c(O)c2c1C[C@H]1C[C@H]3[C@H](N(C)C)C(O)=C(C(N)=O)C(=O)[C@@]3(O)C(O)=C1C2=O [Example 46, ({[(2-{[(5aR,6aS,7S,10aS)-9-(aminocarbonyl)-4,7-bis(dimethylamino)-1,8,10a,11-tetrahydroxy-10,12-dioxo-5,5a,6,6a,7,10,10a,12-octahydrotetracen-2-yl]amino}-2-oxoethyl)(tert-butyl)amino]carbonyl}oxy)methyl cyclopentanecarboxylate]
MIC (E. coli GC 2231; GC2231, read-out: MINIMAL INHIBITORY CONCENTRATION MIC, pre-incubated in Human Serum): 4 mg/L (≈ 5.29 µM) | MIC (E. coli GC 2231; GC2231, read-out: MINIMAL INHIBITORY CONCENTRATION MIC, pre-incubated in Mouse Serum): 0.5 mg/L (≈ 0.662 µM) | MIC (E. coli GC 2231; GC2231, read-out: MINIMAL INHIBITORY CONCENTRATION MIC, pre-incubated in Water): 64 mg/L (≈ 84.7 µM) | MIC (E. coli GC 2235; GC2235, read-out: MINIMAL INHIBITORY CONCENTRATION MIC, pre-incubated in Human Serum): 4 mg/L (≈ 5.29 µM) | MIC (E. coli GC 2235; GC2235, read-out: MINIMAL INHIBITORY CONCENTRATION MIC, pre-incubated in Mouse Serum): 0.5 mg/L (≈ 0.662 µM) | MIC (E. coli GC 2235; GC2235, read-out: MINIMAL INHIBITORY CONCENTRATION MIC, pre-incubated in Water): 64 mg/L (≈ 84.7 µM) | MIC (E. coli GC 2233; GC2233, read-out: MINIMAL INHIBITORY CONCENTRATION MIC, pre-incubated in Human Serum): 4 mg/L (≈ 5.29 µM) | MIC (E. coli GC 2233; GC2233, read-out: MINIMAL INHIBITORY CONCENTRATION MIC, pre-incubated in Mouse Serum): 0.5 mg/L (≈ 0.662 µM) | MIC (E. coli GC 2233; GC2233, read-out: MINIMAL INHIBITORY CONCENTRATION MIC, pre-incubated in Water): 64 mg/L (≈ 84.7 µM) | MIC (E. coli GC 2270; GC2270, read-out: MINIMAL INHIBITORY CONCENTRATION MIC, pre-incubated in Human Serum): 4 mg/L (≈ 5.29 µM) | MIC (E. coli GC 2270; GC2270, read-out: MINIMAL INHIBITORY CONCENTRATION MIC, pre-incubated in Mouse Serum): 0.5 mg/L (≈ 0.662 µM) | MIC (E. coli GC 2270; GC2270, read-out: MINIMAL INHIBITORY CONCENTRATION MIC, pre-incubated in Water): > 64 mg/L | MIC (E. coli GC 4560; GC4560, read-out: MINIMAL INHIBITORY CONCENTRATION MIC, pre-incubated in Human Serum): 1 mg/L (≈ 1.32 µM) | MIC (E. coli GC 4560; GC4560, read-out: MINIMAL INHIBITORY CONCENTRATION MIC, pre-incubated in Mouse Serum): 0.5 mg/L (≈ 0.662 µM) | MIC (E. coli GC 4560; GC4560, read-out: MINIMAL INHIBITORY CONCENTRATION MIC, pre-incubated in Water): 4 mg/L (≈ 5.29 µM) | MIC (E. coli GC 6465; GC6465, read-out: MINIMAL INHIBITORY CONCENTRATION MIC, pre-incubated in Human Serum): 16 mg/L (≈ 21.2 µM) | MIC (E. coli GC 6465; GC6465, read-out: MINIMAL INHIBITORY CONCENTRATION MIC, pre-incubated in Mouse Serum): 2 mg/L (≈ 2.65 µM) | MIC (E. coli GC 6465; GC6465, read-out: MINIMAL INHIBITORY CONCENTRATION MIC, pre-incubated in Water): > 64 mg/L | MIC (E. coli GC 1073; GC1073, read-out: MINIMAL INHIBITORY CONCENTRATION MIC, pre-incubated in Human Serum): 8 mg/L (≈ 10.6 µM) | MIC (E. coli GC 1073; GC1073, read-out: MINIMAL INHIBITORY CONCENTRATION MIC, pre-incubated in Mouse Serum): 1 mg/L (≈ 1.32 µM) | MIC (E. coli GC 1073; GC1073, read-out: MINIMAL INHIBITORY CONCENTRATION MIC, pre-incubated in Water): > 64 mg/L | MIC (S. typhimurium GC 2172; read-out: MINIMAL INHIBITORY CONCENTRATION MIC, pre-incubated in Human Serum): 32 mg/L (≈ 42.3 µM) | MIC (S. typhimurium GC 2172; read-out: MINIMAL INHIBITORY CONCENTRATION MIC, pre-incubated in Mouse Serum): 2 mg/L (≈ 2.65 µM) | MIC (S. typhimurium GC 2172; read-out: MINIMAL INHIBITORY CONCENTRATION MIC, pre-incubated in Water): > 64 mg/L | MIC (S. aureus GC 6466; GC6466, read-out: MINIMAL INHIBITORY CONCENTRATION MIC, pre-incubated in Human Serum): 0.25 mg/L (≈ 0.331 µM) | MIC (S. aureus GC 6466; GC6466, read-out: MINIMAL INHIBITORY CONCENTRATION MIC, pre-incubated in Mouse Serum): 0.25 mg/L (≈ 0.331 µM) | MIC (S. aureus GC 6466; GC6466, read-out: MINIMAL INHIBITORY CONCENTRATION MIC, pre-incubated in Water): 0.25 mg/L (≈ 0.331 µM) | MIC (S. aureus GC 6467; GC6467, read-out: MINIMAL INHIBITORY CONCENTRATION MIC, pre-incubated in Human Serum): 0.5 mg/L (≈ 0.662 µM) | MIC (S. aureus GC 6467; GC6467, read-out: MINIMAL INHIBITORY CONCENTRATION MIC, pre-incubated in Mouse Serum): 1 mg/L (≈ 1.32 µM) | MIC (S. aureus GC 6467; GC6467, read-out: MINIMAL INHIBITORY CONCENTRATION MIC, pre-incubated in Water): 1 mg/L (≈ 1.32 µM) | MIC (S. aureus GC 1079; GC1079, read-out: MINIMAL INHIBITORY CONCENTRATION MIC, pre-incubated in Human Serum): 0.5 mg/L (≈ 0.662 µM) | MIC (S. aureus GC 1079; GC1079, read-out: MINIMAL INHIBITORY CONCENTRATION MIC, pre-incubated in Mouse Serum): 0.5 mg/L (≈ 0.662 µM) | MIC (S. aureus GC 1079; GC1079, read-out: MINIMAL INHIBITORY CONCENTRATION MIC, pre-incubated in Water): 0.5 mg/L (≈ 0.662 µM) | MIC (S. aureus GC 4536; GC4536, read-out: MINIMAL INHIBITORY CONCENTRATION MIC, pre-incubated in Human Serum): 0.5 mg/L (≈ 0.662 µM) | MIC (S. aureus GC 4536; GC4536, read-out: MINIMAL INHIBITORY CONCENTRATION MIC, pre-incubated in Mouse Serum): 0.5 mg/L (≈ 0.662 µM) | MIC (S. aureus GC 4536; GC4536, read-out: MINIMAL INHIBITORY CONCENTRATION MIC, pre-incubated in Water): 0.5 mg/L (≈ 0.662 µM) | MIC (S. aureus GC 2216; GC2216, read-out: MINIMAL INHIBITORY CONCENTRATION MIC, pre-incubated in Human Serum): 0.5 mg/L (≈ 0.662 µM) | MIC (S. aureus GC 2216; GC2216, read-out: MINIMAL INHIBITORY CONCENTRATION MIC, pre-incubated in Mouse Serum): 0.5 mg/L (≈ 0.662 µM) | MIC (S. aureus GC 2216; GC2216, read-out: MINIMAL INHIBITORY CONCENTRATION MIC, pre-incubated in Water): 1 mg/L (≈ 1.32 µM) | MIC (S. aureus GC 6469; GC6469, read-out: MINIMAL INHIBITORY CONCENTRATION MIC, pre-incubated in Human Serum): 0.5 mg/L (≈ 0.662 µM) | MIC (S. aureus GC 6469; GC6469, read-out: MINIMAL INHIBITORY CONCENTRATION MIC, pre-incubated in Mouse Serum): 1 mg/L (≈ 1.32 µM) | MIC (S. aureus GC 6469; GC6469, read-out: MINIMAL INHIBITORY CONCENTRATION MIC, pre-incubated in Water): 1 mg/L (≈ 1.32 µM) | MIC (E. faecalis GC 2242; GC2242, read-out: MINIMAL INHIBITORY CONCENTRATION MIC, pre-incubated in Human Serum): 1 mg/L (≈ 1.32 µM) | MIC (E. faecalis GC 2242; GC2242, read-out: MINIMAL INHIBITORY CONCENTRATION MIC, pre-incubated in Mouse Serum): 0.5 mg/L (≈ 0.662 µM) | MIC (E. faecalis GC 2242; GC2242, read-out: MINIMAL INHIBITORY CONCENTRATION MIC, pre-incubated in Water): 1 mg/L (≈ 1.32 µM) | MIC (E. faecium GC 4556; GC4556, read-out: MINIMAL INHIBITORY CONCENTRATION MIC, pre-incubated in Human Serum): 1 mg/L (≈ 1.32 µM) | MIC (E. faecium GC 4556; GC4556, read-out: MINIMAL INHIBITORY CONCENTRATION MIC, pre-incubated in Mouse Serum): 0.5 mg/L (≈ 0.662 µM) | MIC (E. faecium GC 4556; GC4556, read-out: MINIMAL INHIBITORY CONCENTRATION MIC, pre-incubated in Water): 1 mg/L (≈ 1.32 µM) | MIC (E. faecium GC 2243; GC2243, read-out: MINIMAL INHIBITORY CONCENTRATION MIC, pre-incubated in Human Serum): 0.25 mg/L (≈ 0.331 µM) | MIC (E. faecium GC 2243; GC2243, read-out: MINIMAL INHIBITORY CONCENTRATION MIC, pre-incubated in Mouse Serum): 0.25 mg/L (≈ 0.331 µM) | MIC (E. faecium GC 2243; GC2243, read-out: MINIMAL INHIBITORY CONCENTRATION MIC, pre-incubated in Water): 0.5 mg/L (≈ 0.662 µM) | MIC (c. albicans GC 3066; Candida albicans, GC3066, read-out: MINIMAL INHIBITORY CONCENTRATION MIC): > 64 mg/L | MINIMAL INHIBITORY CONCENTRATION MIC (c. albicans GC 3066; pre-incubated in Human Serum): >64 UG/ML | MINIMAL INHIBITORY CONCENTRATION MIC (c. albicans GC 3066; pre-incubated in Mouse Serum): >64 UG/ML | MIC (E. coli; 20 h, read-out: Range of MIC, E. coli (Mouse Serum)): 0.5 to 2 mg/L (≈ 0.662 to 2.65 µM) | MIC (E. coli; read-out: Minimum inhibitory concentration (MIC), E. coli (Human Serum)): 4 to 16 mg/L (≈ 5.29 to 21.2 µM) | MIC (Staph.; MRSA, read-out: Range of MIC, Staph (Mouse Serum)): 0.25 to 1 mg/L (≈ 0.331 to 1.32 µM) | MIC (Staph.; MRSA, read-out: Range of MIC, Staph (Water)): 0.25 to 2 mg/L (≈ 0.331 to 2.65 µM) | MIC (Staph.; read-out: Minimum inhibitory concentration (MIC), Staph (Human Serum)): 0.25 to 1 mg/L (≈ 0.331 to 1.32 µM) | MIC (Staph.; read-out: Minimum inhibitory concentration (MIC), Staph (Water)): 0.25 to 2 mg/L (≈ 0.331 to 2.65 µM)
